This experiment deals with SHP2 (Homo sapiens (Human), UniProt Q06124). Briefly: SHP2 Allosteric Inhibition Assay (DiFMUP prompt fluorescence). To be noted: 0.25 nM SHP2 activated with 0.5 μM peptide IRS1_pY1172(dPEG8)pY1222; substrate DiFMUP 100 μM; 25° C. In kind it is biochemical.

This note sets out measurements from patent US11591336B2 (Relay Therapeutics, Inc., priority 2017, dated 2023).

Where a name gives a salt, the structure may show the parent alone.

Chain of SHP2 (Q06124 whole entry): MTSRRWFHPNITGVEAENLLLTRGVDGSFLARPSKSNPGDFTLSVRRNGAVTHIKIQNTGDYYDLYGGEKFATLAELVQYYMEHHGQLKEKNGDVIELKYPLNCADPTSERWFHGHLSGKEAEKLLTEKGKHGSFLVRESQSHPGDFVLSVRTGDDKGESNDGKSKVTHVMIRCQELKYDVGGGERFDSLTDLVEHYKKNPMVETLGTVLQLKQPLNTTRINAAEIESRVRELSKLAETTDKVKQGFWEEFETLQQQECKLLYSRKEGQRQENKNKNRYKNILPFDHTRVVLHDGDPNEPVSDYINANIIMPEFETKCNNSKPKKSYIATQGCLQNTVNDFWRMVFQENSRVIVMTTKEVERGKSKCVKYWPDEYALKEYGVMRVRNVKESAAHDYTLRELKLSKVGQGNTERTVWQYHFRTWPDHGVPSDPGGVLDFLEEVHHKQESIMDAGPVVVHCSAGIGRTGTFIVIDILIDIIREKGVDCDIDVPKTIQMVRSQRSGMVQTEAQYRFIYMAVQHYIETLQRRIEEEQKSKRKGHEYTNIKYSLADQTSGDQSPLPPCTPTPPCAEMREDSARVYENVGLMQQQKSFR

Consider `C#Cc1ccc2c(n1)CCCN2c1n[nH]c2nc(N3CCC4(CC3)CO[C@@H](C)[C@H]4N)cnc12` [Compound 410], for which the concentration for half-maximal inhibition (IC50) (usually the midpoint of a concentration-inhibition curve) was below 1 µM.
The result for `C[C@@H]1OCC2(CCN(c3cnc4c(N5CCN([C@H]6C[C@H](O)C6)c6cc(C#N)ccc65)n[nH]c4n3)CC2)[C@@H]1N` [Compound 411] reads below 1 µM.
For `C[C@@H]1OCC2(CCN(c3cnc4c(N5CCN([C@H]6C[C@@H](O)C6)c6cc(C#N)ccc65)n[nH]c4n3)CC2)[C@@H]1N` [Compound 412] the value was below 1 µM; for `C[C@@H]1OCC2(CCN(c3cnc4c(N5CCN(C)c6nnccc65)n[nH]c4n3)CC2)[C@@H]1N` [Compound 413], below 1 µM; for `C[C@@H]1OCC2(CCN(c3cnc4c(N5CCN(C)c6cnncc65)n[nH]c4n3)CC2)[C@@H]1N` [Compound 414], 1 to 10 µM.
For `C[C@@H]1OCC2(CCN(c3cnc4c(N5CCN(C)c6cc(-c7nccs7)ccc65)n[nH]c4n3)CC2)[C@@H]1N` [Compound 415] the value was below 1 µM; for `C[C@@H]1OCC2(CCN(c3cnc4c(N5CCCc6c5ccnc6S(C)(=O)=O)n[nH]c4n3)CC2)[C@@H]1N` [Compound 416], below 1 µM.
Consider `C[C@@H]1OCC2(CCN(c3cnc4c(N5CCCc6c(N=S(C)(C)=O)cccc65)n[nH]c4n3)CC2)[C@@H]1N` [Compound 418], for which the IC50 was below 1 µM.
In turn, `CN=[S@](C)(=O)c1cccc2c1CCCN2c1n[nH]c2nc(N3CCC4(CC3)CO[C@@H](C)[C@H]4N)cnc12` [Compound 419] showed an IC50 below 1 µM.
For `CN=[S@@](C)(=O)c1cccc2c1CCCN2c1n[nH]c2nc(N3CCC4(CC3)CO[C@@H](C)[C@H]4N)cnc12` [Compound 420] the value was below 1 µM; for `C[C@@H]1OCC2(CCN(c3cnc4c(N5CCCc6c5cccc6[S@@](C)(=N)=O)n[nH]c4n3)CC2)[C@@H]1N` [Compound 421], below 1 µM.
For the compound `C[C@@H]1OCC2(CCN(c3cnc4c(N5CCCc6c5cccc6[S@](C)(=N)=O)n[nH]c4n3)CC2)[C@@H]1N` [Compound 422], the IC50 is below 1 µM.
Regarding `C[C@@H]1OCC2(CCN(c3cnc4c(N5CCN(CC(=O)O)c6cc(C#N)ccc65)n[nH]c4n3)CC2)[C@@H]1N` [Compound 423, 2-(4-{6-[(3S,4S)-4-amino-3-methyl-2-oxa-8-azaspiro[4.5]decan-8-yl]-1H-pyrazolo[3,4-b]pyrazin-3-yl}-7-cyano-1,2,3,4-tetrahydroquinoxalin-1-yl)acetic acid], the half-maximal inhibitory concentration (IC50) is below 1 µM.
For `C[C@@H]1OCC2(CCN(c3cnc4c(N5CCCc6c5ccnc6-c5nccs5)n[nH]c4n3)CC2)[C@@H]1N` [Compound 424] the value was below 1 µM; for `CNC(=O)Cc1ccc2c(n1)CCCN2c1n[nH]c2nc(N3CCC4(CC3)CO[C@@H](C)[C@H]4N)cnc12` [Compound 425, 2-(5-{6-[(3S,4S)-4-amino-3-methyl-2-oxa-8-azaspiro[4.5]decan-8-yl]-1H-pyrazolo[3,4-b]pyrazin-3-yl}-5,6,7,8-tetrahydro-1,5-naphthyridin-2-yl)-N-methylacetamide], below 1 µM.
For `CO/N=C/c1ccc2c(c1)[C@@H](C)CCN2c1n[nH]c2nc(N3CCC4(CC3)CO[C@@H](C)[C@H]4N)cnc12` [Compound 426, (3S,4S)-8-{3-[(4S)-6-[(1E)-(methoxyimino)methyl]-4-methyl-1,2,3,4-tetrahydroquinolin-1-yl]-1H-pyrazolo[3,4-b]pyrazin-6-yl}-3-methyl-2-oxa-8-azaspiro[4.5]decan-4-amine] the value was below 1 µM; for `C[C@@H]1OCC2(CCN(c3cnc4c(N5CCCc6nc(C7=CCNCC7)ccc65)n[nH]c4n3)CC2)[C@@H]1N` [Compound 427, (3S,4S)-3-methyl-8-{3-[6-(1,2,3,6-tetrahydropyridin-4-yl)-1,2,3,4-tetrahydro-1,5-naphthyridin-1-yl]-1H-pyrazolo[3,4-b]pyrazin-6-yl}-2-oxa-8-azaspiro[4.5]decan-4-amine hydrochloride], below 1 µM; for `Cc1nnc(-c2c(Cl)ccc3c2CCCN3c2n[nH]c3nc(N4CCC5(CC4)CO[C@@H](C)[C@H]5N)cnc23)o1` [Compound 429, (3S,4S)-8-{3-[6-chloro-5-(5-methyl-1,3,4-oxadiazol-2-yl)-1,2,3,4-tetrahydroquinolin-1-yl]-1H-pyrazolo[3,4-b]pyrazin-6-yl}-3-methyl-2-oxa-8-azaspiro[4.5]decan-4-amine], below 1 µM.
The result for `C[C@@H]1OCC2(CCN(c3cnc4c(N5CC[C@H](C)c6nc(-c7ccn[nH]7)ccc65)n[nH]c4n3)CC2)[C@@H]1N` [Compound 430, (3S,4S)-3-methyl-8-{3-[(4S)-4-methyl-6-(1H-pyrazol-5-yl)-1,2,3,4-tetrahydro-1,5-naphthyridin-1-yl]-1H-pyrazolo[3,4-b]pyrazin-6-yl}-2-oxa-8-azaspiro[4.5]decan-4-amine] reads below 1 µM; that for `C[C@@H]1OCC2(CCN(c3cnc4c(N5CCCc6c(CO)cccc65)n[nH]c4n3)CC2)[C@@H]1N` [Compound 431, (1-{6-[(3S,4S)-4-amino-3-methyl-2-oxa-8-azaspiro[4.5]decan-8-yl]-1H-pyrazolo[3,4-b]pyrazin-3-yl}-1,2,3,4-tetrahydroquinolin-5-yl)methanol], below 1 µM; that for `C[C@@H]1CCN(c2n[nH]c3nc(N4CCC5(CC4)CO[C@@H](C)[C@H]5N)cnc23)c2ccc(-c3ccn[nH]3)nc21` [Compound 432], below 1 µM.
Take `C[C@@H]1OCC2(CCN(c3cnc4c(N5CCCc6c(-c7ncon7)cccc65)n[nH]c4n3)CC2)[C@@H]1N` [Compound 433, (3S,4S)-3-methyl-8-{3-[5-(1,2,4-oxadiazol-3-yl)-1,2,3,4-tetrahydroquinolin-1-yl]-1H-pyrazolo[3,4-b]pyrazin-6-yl}-2-oxa-8-azaspiro[4.5]decan-4-amine]: the IC50 was below 1 µM.
The result for `CNC(=O)Cc1cccc2c1CCCN2c1n[nH]c2nc(N3CCC4(CC3)CO[C@@H](C)[C@H]4N)cnc12` [Compound 434, 2-(1-{6-[(3S,4S)-4-amino-3-methyl-2-oxa-8-azaspiro[4.5]decan-8-yl]-1H-pyrazolo[3,4-b]pyrazin-3-yl}-1,2,3,4-tetrahydroquinolin-5-yl)-N-methylacetamide hydrochloride] reads below 1 µM; that for `C[C@@H]1OCC2(CCN(c3cnc4c(N5CCCc6c(CCO)cccc65)n[nH]c4n3)CC2)[C@@H]1N` [Compound 435], below 1 µM.
On to `C[C@@H]1OCC2(CCN(c3cnc4c(N5CCCc6nc(/C=N\O)ccc65)n[nH]c4n3)CC2)[C@@H]1N` [Compound 436, (3S,4S)-8-(3-{6-[(1Z)-(hydroxyimino)methyl]-1,2,3,4-tetrahydro-1,5-naphthyridin-1-yl}-1H-pyrazolo[3,4-b]pyrazin-6-yl)-3-methyl-2-oxa-8-azaspiro[4.5]decan-4-amine hydrochloride], for which the 50% inhibitory concentration (IC50) was below 1 µM.
In the case of `CC(C)NC(=O)c1ccc2c(n1)[C@H](C)CCN2c1n[nH]c2nc(N3CCC4(CC3)CO[C@@H](C)[C@H]4N)cnc12` [Compound 438], the 50% inhibitory concentration (IC50) is below 1 µM.
In turn, `C[C@@H]1OCC2(CCN(c3cnc4c(N5CCN(CCO)c6cc(C#N)ccc65)n[nH]c4n3)CC2)[C@@H]1N` [Compound 439] came in with an IC50 below 1 µM.
The result for `C[C@@H]1OCC2(CCN(c3cnc4c(N5CCN(C)c6c(-c7cnn(C)c7)cccc65)n[nH]c4n3)CC2)[C@@H]1N` [Compound 440] reads below 1 µM; that for `C[C@@H]1OCC2(CCN(c3cnc4c(N5CCCc6c(CC#N)cccc65)n[nH]c4n3)CC2)[C@@H]1N` [Compound 441], below 1 µM; that for `COCCNC(=O)c1ccc2c(n1)[C@@H](C)CCN2c1n[nH]c2nc(N3CCC4(CC3)CO[C@@H](C)[C@H]4N)cnc12` [Compound 443], below 1 µM.
For `CO/N=C/c1ccc2c(n1)[C@@H](C)CCN2c1n[nH]c2nc(N3CCC4(CC3)CO[C@@H](C)[C@H]4N)cnc12` [Compound 444, (3S,4S)-8-{3-[(4S)-6-[(1E)-(methoxyimino)methyl]-4-methyl-1,2,3,4-tetrahydro-1,5-naphthyridin-1-yl]-1H-pyrazolo[3,4-b]pyrazin-6-yl}-3-methyl-2-oxa-8-azaspiro[4.5]decan-4-amine hydrochloride] the value was below 1 µM; for `C[C@@H]1OCC2(CCN(c3cnc4c(N5CC[C@H](C)c6nc(C(=O)NCc7cccnc7)ccc65)n[nH]c4n3)CC2)[C@@H]1N` [Compound 445], below 1 µM.
`CC(C)NC(=O)c1ccc2c(n1)[C@@H](C)CCN2c1n[nH]c2nc(N3CCC4(CC3)CO[C@@H](C)[C@H]4N)cnc12` [Compound 446] registered a half-inhibitory concentration (IC50) below 1 µM.
`C[C@@H]1OCC2(CCN(c3cnc4c(N5CC[C@H](C)c6nc(C(=O)NCCO)ccc65)n[nH]c4n3)CC2)[C@@H]1N` [Compound 447] registered a concentration for half-maximal inhibition (IC50) below 1 µM.
For `C[C@@H]1CCN(c2n[nH]c3nc(N4CCC5(CC4)CO[C@@H](C)[C@H]5N)cnc23)c2ccc(-c3nnc[nH]3)nc21` [Compound 452, dihydrochloride] the value was below 1 µM.
The result for `C[C@@H]1OCC2(CCN(c3cnc4c(N5CCN(CC(=O)N(C)C)c6cc(C#N)ccc65)n[nH]c4n3)CC2)[C@@H]1N` [Compound 453, 2-(4-{6-[(3S,4S)-4-amino-3-methyl-2-oxa-8-azaspiro[4.5]decan-8-yl]-1H-pyrazolo[3,4-b]pyrazin-3-yl}-7-cyano-1,2,3,4-tetrahydroquinoxalin-1-yl)-N,N-dimethylacetamide] reads below 1 µM.
In turn, `C[C@@H]1OCC2(CCN(c3cnc4c(N5CC[C@H](C)c6nc(-c7nnc[nH]7)ccc65)n[nH]c4n3)CC2)[C@@H]1N` [Compound 454, (3S,4S)-3-methyl-8-{3-[(4S)-4-methyl-6-(4H-1,2,4-triazol-3-yl)-1,2,3,4-tetrahydro-1,5-naphthyridin-1-yl]-1H-pyrazolo[3,4-b]pyrazin-6-yl}-2-oxa-8-azaspiro[4.5]decan-4-amine] gave an IC50 below 1 µM.
For `C[C@@H]1OCC2(CCN(c3cnc4c(N5CCCc6c(CS(C)(=O)=O)cccc65)n[nH]c4n3)CC2)[C@@H]1N` [Compound 455] the value was below 1 µM.
Consider `CC(C)S(=O)(=O)c1cccc2c1CCCN2c1n[nH]c2nc(N3CCC4(CC3)CO[C@@H](C)[C@H]4N)cnc12` [Compound 456], for which the IC50 is below 1 µM.
